Measured values as given in patent US10280163B2 (BeiGene, Ltd., priority 2015, dated 2019).
Read-outs that look alike come from different tables or passages of the source.

Columns and labels:
[1] = target: T1, cellular IDO1 in HeLa cells (Homo sapiens, UniProt P14902); assay: HeLa cell-based IDO1 Kyn (kynurenine) production assay; conditions: IFN-γ 100 ng/mL, 48 hours
T1 construct: endogenous in cells; host or cells: HeLa cells (American Type Tissue Culture Collection), induced with human recombinant IFN-γ
Description: HeLa Cell-Based IDO1 Kyn (Kynurenine) Production Assay:
The inhibitory activity of IDO1 inhibitors is determined by using a colorimetric reaction to measure Kyn generated from L-Trp (L-Tryptophon) oxidation by cellular IDO1 in HeLa cells after induction of IDO1 by IFN-γ.
Hela cells were obtained from the American Type Tissue Culture Collection and recovered in 10% FBS-containing phenol red-free DMEM medium supplemented with 0.4 mM L-Trp. Cells were plated onto a 96-well plate (100 μl/well) at 8000 cells per well. Human recombinant IFN-γ (8901SC, CST) was added to cells (final concentration 100 ng/mL) to stimulate endogenous IDO1. Compounds at different concentrations diluted in dimethylsulfoxide (DMSO) were added simultaneously with IFN-γ. Cells were kept at 37° C. in a humidified incubator supplied with 5% CO2. After 48 hours of incubation, 100 μl supernatant from each well was removed to a new plate. The protein in the medium was precipitated with the addition of 8 μl 6N trichloroacetic acid. The plate was incubated at 60° C. for 45 min and then centrifugation at 2500 rpm for 10 min to remove sediments. 80 μl supernatants were carefully removed to a new clean plate and added with an equal volume of 2% 4-(Dimethylamino) benzaldehyde (D2004, sigma) dissolved in glacial acetic acid. The absorbance at 480 nm wavelength derived from Kyn was measured using a FULOstar OMEGA plate reader (BMG LABTECH). The IC50 for each compound was derived from fitting the dose-response data to the four-parameter logistic model by using Graphpad Prism software.

[2] = target: T2, Recombinant IDO1 (Homo sapiens, UniProt P14902); assay: IDO1 enzymatic assay; format: biochemical; conditions: 50 nM IDO1, 1.3 mM D-tryptophan, read-out: Enzyme IC50 (nM) IDO1
T2 construct: His tag (N); made in house; host or cells: E. coli
Description: Recombinant IDO1 was overexpressed and purified from E. coli cells with an N-terminal His tag. IDO1 enzymatic assay was carried out using a methodology similar to described in the literature (J. Biol. Chem. (1980), 255, 1339-1345.). The reaction mixture contains 50 nM IDO1, 1.3 mM D-tryptophan, 5 mM L-ascorbic acid, 6.25 μM methylene Blue, 0.4 mg/mL catalase and compound (or DMSO) in a buffer containing 50 mM potassium phosphate pH 7.5 and 0.1% BSA. After incubation at 24° C. for 1.5 hours, absorbance of the reaction mixture was continuously read at 321 nm to monitor the formation of N′-formylkynurenine by a FULOstar OMEGA plate reader (BMG LABTECH) for 1 hour. The enzymatic activity was determined by measuring the slope of the linear absorbance increase as a function of time. The IC50s are calculated based on remaining enzyme activity in the presence of increasing concentrations of compounds.

[3] = Table 2, 8-substituted imidazo[1,5-a]pyridines
[4] = Table 1, 5-substituted imidazo[1,5-a]pyridines

T1 sequence (P14902 whole entry): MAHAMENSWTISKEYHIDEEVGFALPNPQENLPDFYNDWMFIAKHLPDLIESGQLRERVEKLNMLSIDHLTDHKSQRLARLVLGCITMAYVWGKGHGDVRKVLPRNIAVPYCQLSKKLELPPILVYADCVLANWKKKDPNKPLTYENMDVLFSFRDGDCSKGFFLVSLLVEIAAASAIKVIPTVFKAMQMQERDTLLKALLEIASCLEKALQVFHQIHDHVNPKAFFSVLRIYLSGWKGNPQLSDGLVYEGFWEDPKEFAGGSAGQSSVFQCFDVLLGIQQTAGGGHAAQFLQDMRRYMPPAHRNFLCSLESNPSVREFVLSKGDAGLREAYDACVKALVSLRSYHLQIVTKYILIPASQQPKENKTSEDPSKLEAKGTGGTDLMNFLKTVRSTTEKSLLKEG
T2 sequence (P14902 whole entry): as above

Compound | EC50 [1, 3] [nM] | IC50 [2, 3] [nM] | EC50 [1, 4] [nM] | IC50 [2, 4] [nM]
OC(c1c(C2CC2)ccn2cncc12)C1CCC(c2ccccc2)CC1 (single isomer, unassigned) [Example B143b, (S)-(7-cyclopropylimidazo[1,5-a]pyridin-8-yl)(cis or trans-4-phenylcyclohexyl)methanol] | 8660 | 300 | – | –
CS(=O)(=O)N1CCCC(C(O)c2c(C3CC3)ccn3cncc23)C1 (single isomer, unassigned) [Example B130a, (7-Cyclopropylimidazo[1,5-a]pyridin-8-yl)(1-(methylsulfonyl)piperidin-3-yl)methanol] | > 10000 | 1400 | – | –
OC(c1c([C@H]2C[C@@H]2F)ccn2cncc12)C1CCCCC1 (mixture of isomers) [Example B128a, Cyclohexyl(7-((trans)-2-fluorocyclopropyl)imidazo[1,5-a]pyridin-8-yl)methanol] | 184 | 100 | – | –
OC(CC1CCCCC1)c1c(C2CC2)ccn2cncc12 (single isomer, unassigned) [Example B110a] | 215 | 18 | – | –
O[C@@H](c1c(C2CC2)ccc2cncn12)C1CC2CCC1C2 (stereo partly drawn) [Example A162b, (1R)-(bicyclo[2.2.1]heptan-2-yl)(6-cyclopropylimidazo[1,5-a]pyridin-5-yl)methanol] | – | – | 6040 | 1600
OC(c1c(Cl)ccn2cncc12)C1CC=CCC1 (stereo not shown) [Example B116, (7-Chloroimidazo[1,5-a]pyridin-8-yl)(cyclohex-3-en-1-yl)methanol] | 4580 | 61 | – | –
OC(c1c(C2CC2)ccn2cncc12)[C@H]1CC[C@H](O)CC1 (single isomer, unassigned) [Example B119b, (trans)-4-((7-Cyclopropylimidazo[1,5-a]pyridin-8-yl)(hydroxy)methyl)cyclohexan-1-ol] | > 10000 | 5500 | – | –
OC(c1c([C@H]2C[C@@H]2F)ccn2cncc12)C1CCCCC1 (single isomer, unassigned) [Example B128b, Cyclohexyl(7-((trans)-2-fluorocyclopropyl)imidazo[1,5-a]pyridin-8-yl)methanol] | > 10000 | 39000 | – | –
OCC1(C(O)c2c(C3CC3)ccn3cncc23)CCCCC1 (stereo not shown) [Example B136, (7-Cyclopropylimidazo[1,5-a]pyridin-8-yl)(1-(hydroxymethyl)cyclohexyl)methanol] | 286 | 760 | – | –
OC(c1c(C2CC2)ccn2cncc12)C1CCC2CC2C1 (stereo not shown) [Example B140, bicyclo[4.1.0]heptan-3-yl(7-cyclopropylimidazo[1,5-a]pyridin-8-yl)methanol] | 147 | 71 | – | –
FC(c1cc(Cl)cc2cncn12)C1CCCCC1 (stereo not shown) [Example A021, 7-chloro-5-(cyclohexylfluoromethyl)imidazo[1,5-a]pyridine] | – | – | > 10000 | 1800
O=C1C2CCC(C2)C1C(O)c1c(C2CC2)ccc2cncn12 (stereo not shown) [Example A161, 3-((6-cyclopropylimidazo[1,5-a]pyridin-5-yl)(hydroxy)methyl)bicyclo[2.2.1]heptan-2-one] | – | – | > 10000 | 57000
CC(C)c1ccn2cncc2c1C(O)[C@H]1CC[C@H](O)CC1 (single isomer, unassigned) [Example B121b, (trans)-4-(Hydroxy(7-isopropylimidazo[1,5-a]pyridin-8-yl)methyl) cyclohexan-1-ol] | > 10000 | 21000 | – | –
CC(O)(c1cccc2cncn12)C1CCCCC1 (stereo not shown) [Example A016, 1-cyclohexyl-1-(imidazo[1,5-a]pyridin-5-yl)ethan-1-ol] | – | – | > 10000 | 23000
OC(c1c(C2CC2)ccn2cncc12)C1CC2C=CC1CC2 (stereo not shown) [Example B123, Bicyclo[2.2.2]oct-5-en-2-yl(7-cyclopropylimidazo[1,5-a]pyridin-8-yl)methanol] | 754 | 260 | – | –
NS(=O)(=O)N1CCCC(C(O)c2c(C3CC3)ccn3cncc23)C1 (single isomer, unassigned) [Example B135b, 3-((7-Cyclopropylimidazo[1,5-a]pyridin-8-yl)(hydroxy)methyl)piperidine-1-sulfonamide] | 1350 | 950 | – | –
OC(c1c(C2CC2)ccn2cncc12)C1CCC(c2ccccc2)CC1 (mixture of isomers) [Example B143, (7-cyclopropylimidazo[1,5-a]pyridin-8-yl)(4-phenylcyclohexyl)methanol] | 149 | 100 | – | –
O[C@H](c1c(C2CC2)ccn2cncc12)C1CC2CCC1C2 (single isomer, unassigned) [Example B122b] | 295 | 78 | – | –
CC(C)c1ccn2cncc2c1[C@@H](O)[C@H]1CC[C@@H](O)CC1 (single isomer, unassigned) [Example B121c] | 1670 | 110 | – | –
O=C(OCc1ccccc1)N1CCCC(C(O)c2c(C3CC3)ccn3cncc23)C1 (stereo not shown) [Example B129, Benzyl-3-((7-cyclopropylimidazo[1,5-a]pyridin-8-yl)(hydroxy)methyl) piperidine-1-carboxylate] | > 10000 | 310 | – | –
1-(7-bromo-8-chloroimidazo[1,5-a]pyridin-5-yl)-2-cyclohexylethan-1-ol [Example A147] | – | – | 2790 | 420
OC(c1c(C2CC2)ccn2cncc12)C1CCOCC1 (stereo not shown) [Example B112, (7-Cyclopropylimidazo[1,5-a]pyridin-8-yl)(tetrahydro-2H-pyran-4-yl)methanol] | 1680 | 530 | – | –
OCC1(C(O)c2cc(Cl)cc3cncn23)CCCCC1 (stereo not shown) [Example A106, (7-chloroimidazo[1,5-a]pyridin-5-yl)(1-(hydroxymethyl)cyclohexyl)methanol] | – | – | 1660 | 120
C=CC(O)c1c(C2CC2)ccn2cncc12 (stereo not shown) [Example B115, 1-(7-Cyclopropylimidazo[1,5-a]pyridin-8-yl)prop-2-en-1-ol] | > 10000 | 120 | – | –
OC1CCC([C@H](O)c2c(C3CC3)ccc3cncn23)CC1 (stereo partly drawn) [Example A142a, (1R,4s)-4-((S)-(6-cyclopropylimidazo[1,5-a]pyridin-5-yl)(hydroxy)methyl)cyclohexan-1-ol] | – | – | 661 | 12
OC(c1c([C@H]2C[C@H]2F)ccn2cncc12)C1CCCCC1 (mixture of isomers) [Example B126b, cyclohexyl(7-(cis-2-fluorocyclopropyl)imidazo [1,5-a]pyridin-8-yl)methanol] | 676 | 340 | – | –
OC1CC2CC1CC2C(O)c1c(C2CC2)ccc2cncn12 (stereo not shown) [Example A165, 5-((6-cyclopropylimidazo[1,5-a]pyridin-5-yl)(hydroxy)methyl)bicyclo[2.2.1]heptan-2-ol] | – | – | 1200 | 430
OC(CC12CC3CC(CC(C3)C1)C2)c1c(C2CC2)ccc2cncn12 (stereo not shown) [Example A163, 2-(Adamantan-1-yl)-1-(6-cyclopropylimidazo[1,5-a]pyridin-5-yl)ethan-1-ol] | – | – | 102 | 94
CS(=O)(=O)N1CCCC(C(O)c2c(C3CC3)ccn3cncc23)C1 (single isomer, unassigned) [Example B130b, (7-Cyclopropylimidazo[1,5-a]pyridin-8-yl)(1-(methylsulfonyl)piperidin-3-yl)methanol] | 909 | 1200 | – | –
